The values below come from US4629728A, “Antihypoxemic 5-(4-substituted piperazinyl)alkyl-8-substituted quinolines” (ADIR S.A.R.L., priority 1984, dated 1986).

Like-named read-outs stand apart in the source and are kept apart here. A value given as a limit tells only on which side of the number the result lay.

Experiment [1] can be described thus: prolongation of life in acute global ischemic syndrome by intravenous injection of magnesium chloride. The experiment is classed as in vivo. Conditions: mice; for minimal effective dose: Mus musculus. As for the experimental part:
The compounds of general formula I are tested by their capacity to prolong the life of mice submitted to an acute global ischemic syndrome by intravenous injection of magnesium chloride.

The nature of experiment [2]: survival in acute global hypoxic syndrome due to inhalation of pure azote. In kind it is in vivo. The conditions noted are these: Mus musculus; mice, intraperitoneal route or per os; read-out: average effective dose (ED50) increasing the survival time by 50% in relation to the control animals. The method, then: In the same way, the compounds of general formula I show a protective effect in mice during an acute global hypoxic syndrome due to inhalation of pure azote. The beneficial action is seen at the same doses as for the previous test. The same effective dose relation is found with the reference substances.
The average effective dose (ED50) increasing the survival time by 50% in relation to the control animals is approximately 3 mg/kg when these compounds are administered by intraperitoneal route or per os particularly with the compounds of Examples 38, 40, 51 and 54 described herein after.

Experiment [3] in a line: cerebral oedema by hypoperfusion of 1 hour (ischemic syndrome) or by triethyl tin per os. The experiment is classed as in vivo. Conditions: reference substances.
In experiment [4] the test system is mitochondrias of the cerebral cortex. In words: oxidative phosphorylation capacity of mitochondrias of the cerebral cortex after an ischemic syndrome. In kind it is in vivo, rats. The conditions noted are these: ischemied rat, reference products. An excerpt: These same compounds show their pharmacological action vis-a-vis losses of the oxidative phosphorylation capacity of mitochondrias of the cerebral cortex obtained after an ischemic syndrome in rats. […] The same activity is only obtained for the reference products with dihydroergotoxine.

The subject of the next experiment is cortical electrogenesis. In words: iterative anoxias test (losses of cortical electrogenesis). The experiment is classed as in vivo. Conditions: rats, administered intravenously. The method, then:
The protective activity vis-a-vis the losses of cortical electrogenesis connected to the ischemic or hypoxic syndrome is evaluated by the iterative anoxias test in rats. […] After the second anoxia, whilst the control animals no longer recuperate their electrocortical activity, the animals treated with the compounds in particular the compounds described in Examples 30, 37, 38, 40 and 54 recover it when they have received by IV perfusion 33 micro g/kg of these. The reference substances only restore it later, at the 120th second for eburnamonine or nicergoline.

Setting [5] is: ip, intraperitoneal route, MgCl2 i.v., read-out: dose from which life of ischemied mice is significantly prolonged.

For `COc1ccccc1N1CCN(CCc2ccc(OS(C)(=O)=O)c3c2CCCN3)CC1` [Example 30, 5-{2-[4-(2-methoxyphenyl)piperazinyl]ethyl}-8-methylsulfonyloxy-1,2,3,4-tetrahydro quinoline], the minimal effective dose in experiment [1] (setting [5]) was 1 mg/kg.
For the compound `CC(=O)N1CCCc2c(CCN3CCN(c4ccccn4)CC3)ccc(O)c21` [Example 38, 1-acetyl-5-{2-[4-(2-pyridyl)piperazinyl]ethyl}-8-hydroxy-1,2,3,4-tetrahydro quinoline], in experiment [1] (setting [5]), the minimal effective dose worked out at 1 mg/kg. Moreover, in experiment [2], the ED50 was ~3 mg/kg.
In the case of `COc1ccccc1N1CCN(CCc2ccc(OC)c3c2CCCN3C(C)=O)CC1` [Example 40, 1-acetyl-5-{2-[4-(2-methoxyphenyl)piperazinyl]ethyl}-8-methoxy-1,2,3,4-tetrahydro quinoline], the minimal effective dose in experiment [1] (setting [5]) was found to be 1 mg/kg. The 50% effective dose (ED50) in experiment [2] was ~3 mg/kg.
With `COc1ccccc1N1CCN(CCc2ccc(O)c3c2CCCN3C)CC1` [Example 51, 1-methyl-5-{2-[4-(2-methoxyphenyl)piperazinyl]ethyl}-8-hydroxy-1,2,3,4-tetrahydro quinoline], in experiment [2], the ED50 is ~3 mg/kg.
For `COc1ccccc1N1CCN(CCc2ccc(OC)c3c2CCCN3C=O)CC1` [Example 54, 1-formyl-5-{-2-[4-(2-methoxyphenyl)piperazinyl]ethyl}-8-methoxy-1,2,3,4-tetrahydro quinoline], the minimal effective dose in experiment [1] (setting [5]) was determined as 1 mg/kg. The ED50 in experiment [2] is ~3 mg/kg.
In the case of `CO[C@]12C[C@@H](COC(=O)c3cncc(Br)c3)CN(C)[C@@H]1Cc1cn(C)c3cccc2c13` [nicergoline], the “higher dose needed for equally intense anti-oedema protective activity (relative to the compounds)” value in experiment [3] was 3 times more.
Consider `CC[C@]12CCCN3CCc4c(n(c5ccccc45)[C@@](O)(C(=O)OC)C1)[C@@H]32` [vincamine, reference compound], for which the “higher dose needed for equally intense anti-oedema protective activity (relative to the compounds)” value in experiment [3] came out at 5 times more. Besides, the minimal effective dose in experiment [1] (po, per os, reference substances, read-out: effective dose per os (inactive up to / no effect below)) is ≥ 100 mg/kg.
Consider dihydroergotoxine, for which, in experiment [4], the “activity on mitochondrial oxygen consumption compared with the compounds” value is given as “same activity”. Further, the “activity in iterative anoxias test compared with the compounds” value with cortical electrogenesis is given as “comparable activity”. For the same compound, in experiment [1] (per os, reference substances), the “effective dose per os (inactive up to / no effect below)” value was > 10 mg/kg.

One may read the ED50 as the midpoint of the dose-response relation.
